Test results: US10308643B2, “Heterocyclic compound” (Takeda Pharmaceutical Company Limited, priority 2015, dated 2019)

Assays:
Assay type in all cases: biochemical
HDAC1 enzyme = target: T1, HDAC1 enzyme (Homo sapiens, UniProt Q13547); test: HDAC1/6 Enzyme Inhibitory Assay (HDAC-Glo I/II Assay kit), HDAC1; settings: 1 μM test compound, wells without enzyme = 100% inhibition; for inhibition at 1 µM: read-out: HDAC1 inhibitory rate (%) (1 μM)
T1 construct: transducing full length HDAC1 and HDAC6 genes into Sf-9 insect cells; GST; purchased SignalChem; host or cells: Sf-9 insect cells
Method: (§1) HDAC1/6 Enzyme Inhibitory Assay
(§2) HDAC1 enzyme and HDAC6 enzyme each prepared by transducing full length HDAC1 and HDAC6 genes into Sf-9 insect cells and purifying by GST affinity column were purchased from SignalChem. Using these enzymes, HDAC1 and/or HDAC6 enzyme inhibitory activities of the compound of the present invention were evaluated. Enzymes were used after preserved at −70° C. HDAC1 or HDAC6 enzyme inhibitory activity of the compound of the present invention was measured using HDAC-Glo™ I/II Assay kit (Promega) according to the following experimental method. The test compound diluted with assay buffer (24 mM Tris-HCl (pH 7.5), 1 mM MgCl2, 0.35 mM KCl, 135 mM NaCl, 0.6 mM Glutathione, 0.01% Tween-20) was added to a 384-well plate by each 2 μL. Then, HDAC1 or HDAC6 enzyme solution diluted with assay buffer was added thereto by each 4 μL, and the plate was incubated at room temperature for 60 min. After incubated, HDAC substrate-Developer solution prepared according to Promega protocol attached to the assay kit was added to the 384-well plate by each 2 μL, and the enzyme reaction was started. After reacting at room temperature for 20 min, luminescence level was measured using plate reader Envision (PerkinElmer). The inhibitory activity of each compound was calculated as a relative activity value when luminescence level in wells without enzyme is considered as 100% inhibition.

HDAC9 enzyme = target: T2, HDAC9 enzyme (Homo sapiens, UniProt Q9UKV0); test: HDAC9 Enzyme Inhibitory Assay (HDAC-Glo class IIa); settings: 1 μM test compound, wells without enzyme = 100% inhibition; for inhibition at 1 µM: read-out: HDAC9 inhibitory rate (%) (1 μM)
T2 construct: transducing full length HDAC9 gene into Sf-9 insect cells; made in house; host or cells: Sf-9 insect cells
Method: HDAC9 Enzyme Inhibitory Assay
Enzyme was prepared by transducing full length HDAC9 gene into Sf-9 insect cells and purifying by Ni-NTA affinity column, and HDAC9 enzyme inhibitory activity was evaluated. Enzymes were used after preserved at −70° C. HDAC9 enzyme inhibitory activity of the test compound was measured using HDAC-Glo class IIa (Promega) according to the following experimental method. The test compound diluted with assay buffer (24 mM Tris-HCl (pH 7.5), 1 mM MgCl2, 0.35 mM KCl, 135 mM NaCl, 0.6 mM Glutathione, 0.01% Tween-20) was added to a 384-well plate by each 2 μL. Then, HDAC9 enzyme solution diluted with assay buffer was added thereto by each 2 μL, and the plate was incubated at room temperature for 60 min. After incubated, HDAC substrate-Developer solution prepared according to Promega protocol was added to the 384-well plate by each 4 μL, and the enzyme reaction was started. After reacting at room temperature for 20 min, luminescence level was measured using plate reader Envision (PerkinElmer). The inhibitory activity of each compound was calculated as a relative activity value when luminescence level in wells without enzyme is considered as 100% inhibition.

HDAC6 enzyme = target: T3, HDAC6 enzyme (Homo sapiens, UniProt Q9UBN7); test: HDAC1/6 Enzyme Inhibitory Assay (HDAC-Glo I/II Assay kit), HDAC6; settings: 1 μM test compound, wells without enzyme = 100% inhibition; for inhibition at 1 µM: read-out: HDAC6 inhibitory rate (%) (1 μM)
T3 construct: transducing full length HDAC1 and HDAC6 genes into Sf-9 insect cells; GST; purchased SignalChem; host or cells: Sf-9 insect cells
T3 sequence (Q9UBN7 1-1215): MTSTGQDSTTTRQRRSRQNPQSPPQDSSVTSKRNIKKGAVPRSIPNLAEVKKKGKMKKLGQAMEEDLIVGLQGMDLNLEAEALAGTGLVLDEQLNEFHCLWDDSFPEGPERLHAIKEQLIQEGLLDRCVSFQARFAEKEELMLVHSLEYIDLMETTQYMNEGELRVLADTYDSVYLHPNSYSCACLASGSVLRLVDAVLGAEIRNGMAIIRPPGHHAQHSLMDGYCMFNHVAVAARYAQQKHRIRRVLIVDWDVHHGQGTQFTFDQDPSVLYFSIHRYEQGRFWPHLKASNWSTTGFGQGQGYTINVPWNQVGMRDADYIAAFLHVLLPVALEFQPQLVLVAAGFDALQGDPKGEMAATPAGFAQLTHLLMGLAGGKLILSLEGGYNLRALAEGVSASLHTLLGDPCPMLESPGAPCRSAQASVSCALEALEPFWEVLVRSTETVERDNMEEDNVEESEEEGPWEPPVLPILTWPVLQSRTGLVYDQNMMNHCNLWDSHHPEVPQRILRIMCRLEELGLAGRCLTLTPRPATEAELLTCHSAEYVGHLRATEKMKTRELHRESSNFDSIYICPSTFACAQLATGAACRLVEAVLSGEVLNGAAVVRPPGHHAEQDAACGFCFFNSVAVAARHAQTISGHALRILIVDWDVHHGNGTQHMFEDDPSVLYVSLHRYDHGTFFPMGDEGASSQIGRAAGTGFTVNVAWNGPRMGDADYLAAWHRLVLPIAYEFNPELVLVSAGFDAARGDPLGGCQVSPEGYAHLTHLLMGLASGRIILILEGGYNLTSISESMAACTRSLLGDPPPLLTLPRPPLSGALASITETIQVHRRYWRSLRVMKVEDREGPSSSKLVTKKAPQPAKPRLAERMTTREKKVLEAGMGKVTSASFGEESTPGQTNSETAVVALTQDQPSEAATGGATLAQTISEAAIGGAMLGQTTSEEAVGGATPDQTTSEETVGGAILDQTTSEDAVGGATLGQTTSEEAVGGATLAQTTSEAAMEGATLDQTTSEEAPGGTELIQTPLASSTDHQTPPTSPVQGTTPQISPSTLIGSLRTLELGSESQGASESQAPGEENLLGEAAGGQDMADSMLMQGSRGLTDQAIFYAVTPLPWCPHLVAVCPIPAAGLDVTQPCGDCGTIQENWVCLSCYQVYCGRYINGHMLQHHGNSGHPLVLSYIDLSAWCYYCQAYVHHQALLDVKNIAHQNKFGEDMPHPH
Method: as §1, §2

T2 sequence (Q9UKV0 whole entry, species assumed): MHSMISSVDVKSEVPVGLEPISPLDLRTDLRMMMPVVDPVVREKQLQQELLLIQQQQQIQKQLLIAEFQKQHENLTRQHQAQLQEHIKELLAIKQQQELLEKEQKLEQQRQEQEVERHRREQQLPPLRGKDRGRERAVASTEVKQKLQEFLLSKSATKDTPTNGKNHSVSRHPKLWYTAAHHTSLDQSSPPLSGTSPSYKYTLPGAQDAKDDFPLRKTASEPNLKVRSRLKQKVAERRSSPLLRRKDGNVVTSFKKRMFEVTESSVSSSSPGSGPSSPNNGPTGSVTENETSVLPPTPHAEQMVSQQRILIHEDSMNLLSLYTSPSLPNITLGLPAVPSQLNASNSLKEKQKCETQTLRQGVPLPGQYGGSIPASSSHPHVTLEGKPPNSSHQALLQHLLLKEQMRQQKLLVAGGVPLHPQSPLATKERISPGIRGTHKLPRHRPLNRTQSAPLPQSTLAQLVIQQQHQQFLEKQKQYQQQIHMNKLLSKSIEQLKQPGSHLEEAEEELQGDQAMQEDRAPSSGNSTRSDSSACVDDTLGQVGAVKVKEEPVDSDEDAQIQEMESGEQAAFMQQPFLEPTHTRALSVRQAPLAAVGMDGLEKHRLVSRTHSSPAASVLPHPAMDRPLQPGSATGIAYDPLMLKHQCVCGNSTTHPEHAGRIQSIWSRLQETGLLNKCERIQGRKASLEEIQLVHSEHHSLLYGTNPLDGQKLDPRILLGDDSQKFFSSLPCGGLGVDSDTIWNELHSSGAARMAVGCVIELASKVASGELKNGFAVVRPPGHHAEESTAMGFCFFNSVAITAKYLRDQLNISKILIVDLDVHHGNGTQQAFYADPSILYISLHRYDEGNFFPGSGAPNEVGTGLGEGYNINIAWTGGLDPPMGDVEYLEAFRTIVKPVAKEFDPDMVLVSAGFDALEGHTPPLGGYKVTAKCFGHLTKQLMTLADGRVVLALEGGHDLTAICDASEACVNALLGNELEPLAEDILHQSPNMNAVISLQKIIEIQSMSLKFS
T1 sequence (Q13547 whole entry): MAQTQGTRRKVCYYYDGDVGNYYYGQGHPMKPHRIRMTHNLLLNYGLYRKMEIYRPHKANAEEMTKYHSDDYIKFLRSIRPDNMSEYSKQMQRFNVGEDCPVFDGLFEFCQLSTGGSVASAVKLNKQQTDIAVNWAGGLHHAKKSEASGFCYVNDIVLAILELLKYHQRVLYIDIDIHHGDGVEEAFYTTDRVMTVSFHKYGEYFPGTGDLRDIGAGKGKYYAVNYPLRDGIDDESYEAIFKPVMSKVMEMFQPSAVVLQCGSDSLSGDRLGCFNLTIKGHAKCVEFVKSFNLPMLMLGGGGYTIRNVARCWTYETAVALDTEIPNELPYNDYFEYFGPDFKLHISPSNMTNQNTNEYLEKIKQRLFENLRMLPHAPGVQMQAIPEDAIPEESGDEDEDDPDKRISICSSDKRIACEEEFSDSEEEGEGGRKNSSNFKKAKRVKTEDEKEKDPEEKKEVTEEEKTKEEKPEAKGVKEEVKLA

SMILES | inhibition at 1 µM (HDAC1 enzyme) [%] | inhibition at 1 µM (HDAC9 enzyme) [%] | inhibition at 1 µM (HDAC6 enzyme) [%] | HDAC1 inhibitory rate (%) (1 μM) (HDAC1 enzyme) | HDAC9 inhibitory rate (%) (1 μM) (HDAC9 enzyme) | HDAC6 inhibitory rate (%) (1 μM) (HDAC6 enzyme)
O=C(N[C@@H]1CCCC[C@H]1N1Cc2ccc(-c3noc(C(F)(F)F)n3)cc2C1=O)c1ccncn1 [Example 115, N-((1R,2R)-2-(1-oxo-6-(5-(trifluoromethyl)-1,2,4-oxadiazol-3-yl)-1,3-dihydro-2H-isoindol-2-yl)cyclohexyl)pyrimidine-4-carboxamide] | 16 | 64 | 99 |  |  | 
CC1(C(=O)N[C@@H]2CCCC[C@H]2N2Cc3ccc(-c4noc(C(F)(F)F)n4)cc3C2=O)CCC1 [Example 174, 1-methyl-N-((1R,2R)-2-(1-oxo-6-(5-(trifluoromethyl)-1,2,4-oxadiazol-3-yl)-1,3-dihydro-2H-isoindol-2-yl)cyclohexyl)cyclobutanecarboxamide] | 8 | 60 | 90 |  |  | 
O=C(N[C@@H]1CCCC[C@H]1N1Cc2ccc(-c3noc(C(F)(F)F)n3)cc2C1=O)c1cocn1 [Example 103, N-((1R,2R)-2-(1-oxo-6-(5-(trifluoromethyl)-1,2,4-oxadiazol-3-yl)-1,3-dihydro-2H-isoindol-2-yl)cyclohexyl)-1,3-oxazole-4-carboxamide] | 14 | 55 | 102 |  |  | 
Cc1ccc([C@@H]2CNCC[C@H]2N2Cc3ccc(-c4noc(C(F)(F)F)n4)cc3C2=O)cc1 (relative stereo) [Example 47, 2-(trans-3-(4-methylphenyl)piperidin-4-yl)-6-(5-(trifluoromethyl)-1,2,4-oxadiazol-3-yl)isoindolin-1-one] | 90 | 99 | 95 |  |  | 
O=C(CCC(F)F)N[C@@H]1CCCC[C@H]1N1Cc2ccc(-c3noc(C(F)(F)F)n3)cc2C1=O [Example 126, 4,4-difluoro-N-((1R,2R)-2-(1-oxo-6-(5-(trifluoromethyl)-1,2,4-oxadiazol-3-yl)-1,3-dihydro-2H-isoindol-2-yl)cyclohexyl)butanamide] | 10 | 59 | 100 |  |  | 
O=C1CCCN1[C@@H]1CCOC[C@H]1N1Cc2ccc(-c3noc(C(F)(F)F)n3)cc2C1=O [Example 183, 2-((3S,4R)-4-(2-oxopyrrolidin-1-yl)tetrahydro-2H-pyran-3-yl)-6-(5-(trifluoromethyl)-1,2,4-oxadiazol-3-yl)isoindolin-1-one] |  |  |  | 1 | 47 | 77
O=C(Cc1ccc(F)cc1)N1CCC(N2Cc3ncc(-c4noc(C(F)(F)F)n4)cc3C2=O)C1 (stereo not drawn) [Example 74, 6-(1-((4-fluorophenyl)acetyl)pyrrolidin-3-yl)-3-(5-(trifluoromethyl)-1,2,4-oxadiazol-3-yl)-6,7-dihydro-5H-pyrrolo[3,4-b]pyridin-5-one] | 33 | 90 | 86 |  |  | 
O=C(N[C@@H]1CCCC[C@H]1N1Cc2ccc(-c3noc(C(F)(F)F)n3)cc2C1=O)N1CC2CC1CO2 (stereo partly drawn) [Example 156, N-((1R,2R)-2-(1-oxo-6-(5-(trifluoromethyl)-1,2,4-oxadiazol-3-yl)-1,3-dihydro-2H-isoindol-2-yl)cyclohexyl)-2-oxa-5-azabicyclo[2.2.1]heptane-5-carboxamide] |  | 8 | 96 | −1 |  | 
O=C(Cc1ccc(F)cc1)N1CCC(N2Cc3ncc(-c4noc(C(F)(F)F)n4)cc3C2=O)CC1 [Example 68, 6-(1-((4-fluorophenyl)acetyl)piperidin-4-yl)-3-(5-(trifluoromethyl)-1,2,4-oxadiazol-3-yl)-6,7-dihydro-5H-pyrrolo[3,4-b]pyridin-5-one] | 35 | 90 | 90 |  |  | 
N#CC1(C(=O)N[C@@H]2CCCC[C@H]2N2Cc3ccc(-c4noc(C(F)(F)F)n4)cc3C2=O)CC1 [Example 122, 1-cyano-N-((1R,2R)-2-(1-oxo-6-(5-(trifluoromethyl)-1,2,4-oxadiazol-3-yl)-1,3-dihydro-2H-isoindol-2-yl)cyclohexyl) cyclopropanecarboxamide] | 6 | 67 | 97 |  |  | 
O=C(N[C@@H]1CCCC[C@H]1N1Cc2ccc(-c3noc(C(F)(F)F)n3)cc2C1=O)N1CC2(COC2)C1 [Example 161, N-((1R,2R)-2-(1-oxo-6-(5-(trifluoromethyl)-1,2,4-oxadiazol-3-yl)-1,3-dihydro-2H-isoindol-2-yl)cyclohexyl)-2-oxa-6-azaspiro[3.3]heptane-6-carboxamide] | 1 | 20 | 76 |  |  | 
CC(C)(C)OC(=O)N1CC[C@@H](c2ccccc2)[C@H](N2Cc3cc(-c4noc(C(F)(F)F)n4)ccc3C2=O)C1 (relative stereo) [Example 71, tert-butyl trans-3-(1-oxo-5-(5-(trifluoromethyl)-1,2,4-oxadiazol-3-yl)-1,3-dihydro-2H-isoindol-2-yl)-4-phenylpiperidine-1-carboxylate] | 9 | 73 | 36 |  |  | 
CC(C)(C)N1CC(C(=O)N[C@@H]2CCCC[C@H]2N2Cc3ccc(-c4noc(C(F)(F)F)n4)cc3C2=O)C1 [Example 114, 1-tert-butyl-N-((1R,2R)-2-(1-oxo-6-(5-(trifluoromethyl)-1,2,4-oxadiazol-3-yl)-1,3-dihydro-2H-isoindol-2-yl)cyclohexyl)azetidine-3-carboxamide] | 1 | 11 | 39 |  |  | 
O=C1CCCN1[C@@H]1COCC[C@H]1N1Cc2ccc(-c3noc(C(F)(F)F)n3)cc2C1=O [Example 180, 2-((3S,4R)-3-(2-oxopyrrolidin-1-yl)tetrahydro-2H-pyran-4-yl)-6-(5-(trifluoromethyl)-1,2,4-oxadiazol-3-yl)isoindolin-1-one] |  |  |  | 13 | 72 | 99
